Data as given in US20130317095A1, “Use of Artemisine Derivatives and Pharmaceutical Salts Thereof” (Shanghai Institute of Materia Medica, Chinese Academy of …, priority 2011, published 2013).
pIC50: −log10 of the molar value.

Assays:
Kasumi-1 cells [1] = assay: MTT inhibition test, Kasumi-1 cells; format: cell-based; conditions: Homo sapiens, 48 h
Experimental: (§1) First dissolve SM1044 in triple distilled water, concentration: 1 mg/ml, then choose typical AML cell lines such as Kasumi-1, NB4-R1, HL60 and U937 cells to perform the experiments. Plate 2.5×10^5 cells in dishes, respectively, blank group, control group without SM1044, and groups with SM1044 in various concentrations, and 3 wells for each concentration. Add MTT (5 mg/ml) to each well after incubating for a certain period, and incubate the plate for further 4 h. Centrifuge and aspirate 180 μl supernatant. Add 180 μl DMSO to each well, and place the plate a shaking table for 15 min. Measure the absorbance(A) at 570 nm using a microplate reader, and calculate the half maximal inhibitory concentration (IC50).

NB4-R1 cells [2] = assay: MTT inhibition test, NB4-R1 cells; format: cell-based; conditions: 48 h
Experimental: as §1

HL60 cells [3] = assay: MTT inhibition test, HL60 cells; format: cell-based; conditions: Homo sapiens, HL-60, 48 h
Experimental: as §1

U937 cells [4] = assay: MTT inhibition test, U937 cells; format: cell-based; conditions: Homo sapiens, U-937, 48 h
Experimental: as §1

Kasumi-1 cells [5] = assay: Annexin V-FITC/PI flow cytometry apoptosis, Kasumi-1; format: cell-based; conditions: Kasumi-1, 24-48 hours, various concentrations
Experimental: (§2) Respectively plate 3×10^5˜5×10^5 cells/m1 of Kasumi-1, NB4-R1, HL60 and U937cells in dishes. Setting control group (0 μM) and groups with SM1044 in various concentrations, incubate for 24 h and 48 h. Harvest cells and wash cells with pre-cooling phosphate buffer twice. Resuspend the cells in 200 μL binding buffer, and add 5 μL Annexin V-FITC and 5 μL propidium iodide (PI), gently mixing, incubating for 15 min at room temperature in the dark, analyzing by flow cytometry in 1 hour.

NB4-R1 cells [6] = assay: Annexin V-FITC/PI flow cytometry apoptosis, NB4-R1; format: cell-based; conditions: NB4-R1, 24-48 hours, various concentrations
Experimental: as §2

HL60 cells [7] = assay: Annexin V-FITC/PI flow cytometry apoptosis, HL60; format: cell-based; conditions: HL60, 24-48 hours, various concentrations
Experimental: as §2

U937 cells [8] = assay: Annexin V-FITC/PI flow cytometry apoptosis, U937; format: cell-based; conditions: U937, 24-48 hours, various concentrations
Experimental: as §2

Kasumi-1 cells [9] = assay: Loss of mitochondrial membrane potential, DiOC6(3) flow cytometry, Kasumi-1; format: cell-based
Experimental: (§3) Respectively plate 3×10^5˜5×10^5 cells/ml of Kasumi-1, NB4-R1, HL60 and U937cells in dishes. Setting control group (0 μM) and groups with SM1044 in various concentrations, incubate for 24 h and 48 h. Add 20 nM DiOC6(3) and incubate for 15 min at 37° C. in the dark. Wash cells with PBS twice, and resuspend the cells in 100 μLPBS, analyzing by flow cytometry. The cells which are DiOC6(3) negative are those that lose mitochondrial membrane potential. […] There are at least two broad pathways that lead to Apoptosis, an “Extrinsic” and an “Intrinsic” Pathway, and the loss of mitochondrial membrane potential is very closely related to intrinsic pathway.

NB4-R1 cells [10] = assay: Loss of mitochondrial membrane potential, DiOC6(3) flow cytometry, NB4-R1; format: cell-based
Experimental: as §3

HL-60 cells = assay: Loss of mitochondrial membrane potential, DiOC6(3) flow cytometry, HL-60; format: cell-based
Experimental: as §3

U937 cells [11] = assay: Loss of mitochondrial membrane potential, DiOC6(3) flow cytometry, U937; format: cell-based
Experimental: as §3

[12] = test system: caspase-3, caspase-8 and/or caspase-9 in NB4-R1 cells; assay: Western blot of apoptosis-related proteins, NB4-R1; format: cell-based; conditions: NB4-R1, 24 hours
Experimental: (§4) Respectively plate 3×10^5˜5×10^5 cells/ml of NB4-R1, HL60 and U937 cells in dishes. Setting control group (0 μM) and groups with SM1044 in various concentrations, and incubating for 24 hours. Extracting whole protein of the cells, detect the quantitive variation of […] related proteins (PARP, caspase-3, caspase-8, caspase-9) by antibodies through western blot. Caspase family plays an important role in mediating apoptosis. There are at least two broad pathways that lead to Apoptosis. One is extracellular signals activating intracellular caspase-8, etc, the other is mitochondria-derived activators of caspases activating caspase-9, etc. Therefore the activaigted caspases activate apoptotic excutants—caspase3 to induce apoptosis, and PARP is the substrate of caspase-3.

[13] = test system: caspase-3, caspase-8 and/or caspase-9 in HL60 cells; assay: Western blot of apoptosis-related proteins, HL60; format: cell-based; conditions: HL60, 24 hours
Experimental: as §4

[14] = test system: caspase-3, caspase-8 and/or caspase-9 in U937 cells; assay: Western blot of apoptosis-related proteins, U937; format: cell-based; conditions: U937, 24 hours
Experimental: as §4

AML1-ETO fusion gene = assay: RT-PCR of AML1-ETO fusion gene mRNA in Kasumi-1 cells; format: cell-based; conditions: Kasumi-1, 24 hours
Experimental: (§5) Plate 1×10^7 Kasumi-1 cells with 20 mL medium in dish. Setting control group (0 μM) and groups with SM1044 in various concentrations, and incubating for 24 hours. Extract the whole RNA, and detect the variation of fusion gene at the mRNA level by RT-PCR (FIG. 5A). […] Plate 5×10^5 Kasumi-1 cells in a dish. Setting control group (0 μM) and groups with SM1044 in various concentrations, and incubating for 24 hours. Extracting whole protein of the cells, detect the variation of AML1-ETO fusion protein by ETO antibody through western blot (FIG. 5B). […] It can be concluded that SM1044 doesn't effect the transcription of AML1-ETO fusion gene, but can induce the degradation of the fusion protein. As the typical fusion gene of AML-M2b, AML1-ETO fusion protein plays an important role in the occurrence of leukemia, which can be a target for medical treatments.

AML1-ETO fusion protein = target: T1, AML1-ETO fusion protein (Homo sapiens, UniProt Q01196+Q06455); assay: Western blot of AML1-ETO fusion protein in Kasumi-1 cells; format: cell-based; conditions: Kasumi-1, 1 μM/L, 24 hours
T1 construct: Extracting whole protein of the cells; endogenous in cells; host or cells: Kasumi-1 cells
Experimental: as §5

oncogene c-myc = assay: Western blot of c-myc expression in HL60 cells; format: cell-based; conditions: HL60, above 1 μM/L, 24 hours
Experimental: Plate 3×10^5/mL HL60 cells in dishes. Setting control group (0 μM) and groups with SM1044 in various concentrations, and incubating for 24 hours. Extracting whole protein of the cells, detect the variation of expression of oncogene c-myc by c-myc antibody through western blot. Over-expression of oncogene c-myc is a character of HL60 cells.

Kasumi-1 cells [15] = assay: Cell cycle analysis, PI flow cytometry, Kasumi-1; format: cell-based; conditions: for cells in G0/G1 phase / cells in G2/M phase / cells in S phase: 24 hours
Experimental: (§6) Plate 5×10^5/mL Kasumi-1 cells and HL60 cells respectively in dishes. Setting control group (0 μM) and groups with SM1044 in various concentrations, and incubating for 24 hours (kasumi-1 cells) or 12 hours (HL60 cells). Harvest the cells, wash cells with PBS twice, and add 70% ice cold ethanol overnight to fix the cells. Wash cells with PBS, and resuspend the cells in PBS with 10 mg/ml RNase, incubating at 37° C. for 30 min. Add 50 μg/ml propidium iodide (PI), analyzing the distribution of DNA contents by flow cytometry in 1 hour.

HL60 cells [16] = assay: Cell cycle analysis, PI flow cytometry, HL60; format: cell-based; conditions: for cells in G0/G1 phase / cells in G2/M phase / cells in S phase: 12 hours
Experimental: as §6

[17] = test system: transplanted tumor with Kasumi-1 cells; assay: Mouse transplanted tumor model, Kasumi-1; format: in vivo; conditions: mice, Kasumi-1 tumor under the skin, intraperitoneal 0.125 ml per day, 18-35 d
Experimental: (§7) Developing mouse transplanted tumor models with acute myeloid leukemic cell lines such as Kasumi-1, HL60 and U937 cells, inject 1×10^7 leukemic cells under the skin. When the tumors are 5 mm in diameter, divide the mice into two groups, control group(con) and groups with SM1044 in various concentrations. Mice intraperitoneally infused with 0.125 ml (kasumi-1 and H160 cells) or 0.1 ml (U937 cells) SM1044 per day, while mice in control groups get equivalent saline, for a course of 18-35 d, measuring the tumors everyday.

[18] = test system: transplanted tumor with HL60 cells; assay: Mouse transplanted tumor model, HL60; format: in vivo; conditions: mice, HL60 tumor under the skin, intraperitoneal 0.125 ml per day, 18-35 d
Experimental: as §7

[19] = test system: transplanted tumor with U937 cells; assay: Mouse transplanted tumor model, U937; format: in vivo; conditions: mice, U937 tumor under the skin, intraperitoneal 0.1 ml per day, 18-35 d
Experimental: as §7

T1 sequence (Q01196+Q06455 fused): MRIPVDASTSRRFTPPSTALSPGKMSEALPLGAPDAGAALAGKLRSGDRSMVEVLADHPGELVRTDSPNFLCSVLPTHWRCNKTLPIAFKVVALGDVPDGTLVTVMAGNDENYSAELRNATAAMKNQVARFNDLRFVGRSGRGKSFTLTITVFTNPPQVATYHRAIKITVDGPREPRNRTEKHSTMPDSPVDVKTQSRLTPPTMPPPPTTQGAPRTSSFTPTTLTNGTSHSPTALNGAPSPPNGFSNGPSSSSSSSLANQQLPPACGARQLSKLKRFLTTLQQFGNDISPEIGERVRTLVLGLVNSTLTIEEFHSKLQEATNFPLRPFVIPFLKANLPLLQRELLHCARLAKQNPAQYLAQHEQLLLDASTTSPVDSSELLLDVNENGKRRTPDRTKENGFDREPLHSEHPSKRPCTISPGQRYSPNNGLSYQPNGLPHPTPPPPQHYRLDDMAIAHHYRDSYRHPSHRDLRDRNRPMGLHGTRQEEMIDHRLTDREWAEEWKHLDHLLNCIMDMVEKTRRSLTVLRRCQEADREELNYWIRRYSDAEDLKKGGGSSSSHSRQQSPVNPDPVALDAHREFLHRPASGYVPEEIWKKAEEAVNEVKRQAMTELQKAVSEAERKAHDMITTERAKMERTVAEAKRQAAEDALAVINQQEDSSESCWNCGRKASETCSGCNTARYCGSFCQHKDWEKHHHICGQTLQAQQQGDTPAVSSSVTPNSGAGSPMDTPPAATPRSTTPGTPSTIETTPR

SMILES: C[C@H]1[C@@H](OCCNCCO[C@H]2O[C@@H]3O[C@@]4(C)CC[C@H]5[C@H](C)CC[C@@H]([C@H]2C)[C@@]35OO4)O[C@@H]2O[C@@]3(C)CC[C@H]4[C@H](C)CC[C@@H]1[C@@]24OO3.O=C(O)/C=C\C(=O)O [SM1044, diarteethe amine maleate]
- pIC50 (Kasumi-1 cells [1]): 6.77
- pIC50 (NB4-R1 cells [2]): 7.68
- pIC50 (HL60 cells [3]): 7.40
- pIC50 (U937 cells [4]): 7.70
- apoptosis induction (Kasumi-1 cells [5]): can induce apoptosis
- apoptosis induction (NB4-R1 cells [6]): can induce apoptosis
- apoptosis induction (HL60 cells [7]): can induce apoptosis
- apoptosis induction (U937 cells [8]): can induce apoptosis
- percentage of DiOC6(3) negtive Kasumi-1 cells (Kasumi-1 cells [9]; 0.1 μM, 24 h): 24.1%
- percentage of DiOC6(3) negtive Kasumi-1 cells (Kasumi-1 cells [9]; 0.1 μM, 48 h): 44.9%
- percentage of DiOC6(3) negtive Kasumi-1 cells (Kasumi-1 cells [9]; 1 μM, 24 h): 33.8%
- percentage of DiOC6(3) negtive Kasumi-1 cells (Kasumi-1 cells [9]; 1 μM, 48 h): 47.1%
- percentage of DiOC6(3) negtive Kasumi-1 cells (Kasumi-1 cells [9]; 5 μM, 24 h): 63.2%
- percentage of DiOC6(3) negtive Kasumi-1 cells (Kasumi-1 cells [9]; 5 μM, 48 h): 79.2%
- percentage of DiOC6(3) negative NB4-R1 cells (NB4-R1 cells [10]; 0.1 μM, 24 h): 13.9%
- percentage of DiOC6(3) negative NB4-R1 cells (NB4-R1 cells [10]; 0.1 μM, 48 h): 16.3%
- percentage of DiOC6(3) negative NB4-R1 cells (NB4-R1 cells [10]; 1 μM, 24 h): 17.1%
- percentage of DiOC6(3) negative NB4-R1 cells (NB4-R1 cells [10]; 1 μM, 48 h): 33.0%
- percentage of DiOC6(3) negative NB4-R1 cells (NB4-R1 cells [10]; 5 μM, 24 h): 15.0%
- percentage of DiOC6(3) negative NB4-R1 cells (NB4-R1 cells [10]; 5 μM, 48 h): 30.0%
- percentage of DiOC6(3) negative HL-60 cells (HL-60 cells; 0.1 μM, 24 h): 23.8%
- percentage of DiOC6(3) negative HL-60 cells (HL-60 cells; 0.1 μM, 48 h): 61.7%
- percentage of DiOC6(3) negative HL-60 cells (HL-60 cells; 1 μM, 24 h): 25.6%
- percentage of DiOC6(3) negative HL-60 cells (HL-60 cells; 1 μM, 48 h): 77.1%
- percentage of DiOC6(3) negative HL-60 cells (HL-60 cells; 5 μM, 24 h): 48.5%
- percentage of DiOC6(3) negative HL-60 cells (HL-60 cells; 5 μM, 48 h): 81.1%
- percentage of DiOC6(3) negative U937 cells (U937 cells [11]; 0.1 μM, 24 h): 4.3%
- percentage of DiOC6(3) negative U937 cells (U937 cells [11]; 0.1 μM, 48 h): 5.9%
- percentage of DiOC6(3) negative U937 cells (U937 cells [11]; 1 μM, 24 h): 5.2%
- percentage of DiOC6(3) negative U937 cells (U937 cells [11]; 1 μM, 48 h): 5.6%
- percentage of DiOC6(3) negative U937 cells (U937 cells [11]; 5 μM, 24 h): 9.4%
- percentage of DiOC6(3) negative U937 cells (U937 cells [11]; 5 μM, 48 h): 16.2%
- activated apoptosis-related proteins (caspase-3, caspase-8 and/or caspase-9) [12]: increase
- activated apoptosis-related proteins (caspase-3, caspase-8 and/or caspase-9) [13]: increase
- activated apoptosis-related proteins (caspase-3, caspase-8 and/or caspase-9) [14]: increase
- variation of AML1-ETO fusion gene at the mRNA level (AML1-ETO fusion gene): no effect on the transcription of fusion gene
- degradation of AML1-ETO fusion protein (AML1-ETO fusion protein): can induce the degradation of AML1-ETO fusion protein
- expression of oncogene c-myc (oncogene c-myc): completely inhibit
- cells in G0/G1 phase (Kasumi-1 cells [15]; Kasumi-1, 0.1 μM): 59.62%
- cells in G2/M phase (Kasumi-1 cells [15]; Kasumi-1, 0.1 μM): 6.01%
- cells in S phase (Kasumi-1 cells [15]; Kasumi-1, 0.1 μM): 34.37%
- cells in G0/G1 phase (Kasumi-1 cells [15]; Kasumi-1, 1 μM): 71.75%
- cells in G2/M phase (Kasumi-1 cells [15]; Kasumi-1, 1 μM): 6.70%
- cells in S phase (Kasumi-1 cells [15]; Kasumi-1, 1 μM): 21.75%
- cells in G0/G1 phase (Kasumi-1 cells [15]; Kasumi-1, 5 μM): 71.07%
- cells in G2/M phase (Kasumi-1 cells [15]; Kasumi-1, 5 μM): 6.00%
- cells in S phase (Kasumi-1 cells [15]; Kasumi-1, 5 μM): 21.92%
- cell cycle block (Kasumi-1 cells [15]; Kasumi-1, 24 hours): blocked in G0/G1 phase
- cells in G0/G1 phase (HL60 cells [16]; HL60, 0.1 μM): 41.60%
- cells in G2/M phase (HL60 cells [16]; HL60, 0.1 μM): 3.80%
- cells in S phase (HL60 cells [16]; HL60, 0.1 μM): 54.61%
- cells in G0/G1 phase (HL60 cells [16]; HL60, 1 μM): 44.12%
- cells in G2/M phase (HL60 cells [16]; HL60, 1 μM): 8.00%
- cells in S phase (HL60 cells [16]; HL60, 1 μM): 47.88%
- cells in G0/G1 phase (HL60 cells [16]; HL60, 5 μM): 54.48%
- cells in G2/M phase (HL60 cells [16]; HL60, 5 μM): 8.00%
- cells in S phase (HL60 cells [16]; HL60, 5 μM): 37.52%
- cell cycle block (HL60 cells [16]; HL60, 12 hours): blocked in G0/G1 phase
- tumor size compared with control group [17]: obviously little than controls
- tumor size compared with control group [18]: obviously little than controls
- tumor size compared with control group [19]: obviously little than controls
